System: revascularization, unstable angina requiring hospitalization, MI, all causes of death, or stroke
Assay: PROVE IT-TIMI 22: SNP by treatment interaction (high-dose atorvastatin vs standard-dose pravastatin), logistic regression (synergy index), primary composite endpoint
Assay type: in vivo, human
Conditions: for OR: PROVEIT

SMILES: CC(C)c1c(C(=O)Nc2ccccc2)c(-c2ccccc2)c(-c2ccc(F)cc2)n1CC[C@@H](O)C[C@@H](O)CC(=O)O [Atorvastatin, atorvastatin]
- OR (marker rs13129010, caseonly, model dom, End-point CHD, atorvastatin vs pravastatin): 1.39
- OR (marker rs13150189, caseonly, model dom, End-point CVD, atorvastatin vs pravastatin): 1.36
- OR (marker rs16934059, cohort, model dom, End-point CHD, atorvastatin vs pravastatin): 0.65
- OR (marker rs17002013, cohort, model dom, End-point CVD, atorvastatin vs pravastatin): 1.38
- OR (marker rs17688430, caseonly, model add, End-point CVD, atorvastatin vs pravastatin): 0.77
- OR (marker rs17821383, caseonly, model rec, End-point CHD, atorvastatin vs pravastatin): 0.35
- OR (rs4773, caseonly, dom, CVD): 0.68
- OR (rs475420, caseonly, dom, CVD): 1.57
- OR (rs1045916, caseonly, add, CHD): 0.79
- OR (rs7067780, caseonly, dom, CVD): 1.41
- OR (rs9906737, caseonly, dom, CHD): 0.53
- OR (rs17644708, caseonly, rec, CVD): 0.34
- OR (SNP x treatment interaction) (rs742827, allele A, ADD, Imputed, atorvastatin vs pravastatin): 1.396
- OR (SNP x treatment interaction) (rs879961, allele T, ADD, Imputed, atorvastatin vs pravastatin): 1.178
- OR (SNP x treatment interaction) (rs906353, allele A, DOM, Imputed, atorvastatin vs pravastatin): 1.22
- OR (SNP x treatment interaction) (rs915491, allele C, DOM, Imputed, atorvastatin vs pravastatin): 1.329
- OR (SNP x treatment interaction) (rs915493, allele T, DOM, Imputed, atorvastatin vs pravastatin): 1.329
- OR (SNP x treatment interaction) (rs915494, allele A, ADD, Imputed, atorvastatin vs pravastatin): 1.399
- OR (SNP x treatment interaction) (rs915494, allele A, DOM, Imputed, atorvastatin vs pravastatin): 1.486
- OR (SNP x treatment interaction) (rs917295, allele G, DOM, Imputed, atorvastatin vs pravastatin): 0.5934
- OR (SNP x treatment interaction) (rs966583, allele A, ADD, Imputed, atorvastatin vs pravastatin): 0.7596
- OR (SNP x treatment interaction) (rs966583, allele A, DOM, Imputed, atorvastatin vs pravastatin): 0.6781
- OR (SNP x treatment interaction) (rs7180245, allele A, REC, Imputed, atorvastatin vs pravastatin): 1.965
- OR (SNP x treatment interaction) (rs7283476, allele T, ADD, Imputed, atorvastatin vs pravastatin): 0.413
- OR (SNP x treatment interaction) (rs7283476, allele T, DOM, Imputed, atorvastatin vs pravastatin): 0.3545
- OR (SNP x treatment interaction) (rs7298255, allele A, ADD, Imputed, atorvastatin vs pravastatin): 0.7433
- OR (SNP x treatment interaction) (rs7298255, allele A, DOM, Imputed, atorvastatin vs pravastatin): 0.74
- OR (SNP x treatment interaction) (rs7392620, allele C, ADD, Imputed, atorvastatin vs pravastatin): 0.6521
- OR (SNP x treatment interaction) (rs7446891, allele G, DOM, Imputed, atorvastatin vs pravastatin): 0.5934
- OR (SNP x treatment interaction) (rs7448641, allele C, ADD, Imputed, atorvastatin vs pravastatin): 0.9741
- OR (SNP x treatment interaction) (rs7448641, allele C, DOM, Imputed, atorvastatin vs pravastatin): 1.136
- OR (SNP x treatment interaction) (rs7499402, allele A, ADD, Genotyped, atorvastatin vs pravastatin): 2.08
- OR (SNP x treatment interaction) (rs7529851, allele A, ADD, Imputed, atorvastatin vs pravastatin): 0.7324
- OR (SNP x treatment interaction) (rs7573951, allele G, ADD, Imputed, atorvastatin vs pravastatin): 1.009
- OR (SNP x treatment interaction) (rs7599198, allele T, DOM, Imputed, atorvastatin vs pravastatin): 0.9895
- OR (SNP x treatment interaction) (rs7607712, allele T, ADD, Imputed, atorvastatin vs pravastatin): 1.357
- OR (SNP x treatment interaction) (rs7607712, allele T, DOM, Imputed, atorvastatin vs pravastatin): 1.496
- OR (SNP x treatment interaction) (rs7621663, allele G, REC, Imputed, atorvastatin vs pravastatin): 0.8874
- OR (SNP x treatment interaction) (rs7626584, allele G, ADD, Imputed, atorvastatin vs pravastatin): 0.6617
- OR (SNP x treatment interaction) (rs7684899, allele C, ADD, Imputed, atorvastatin vs pravastatin): 0.617
- OR (SNP x treatment interaction) (rs7684899, allele C, DOM, Imputed, atorvastatin vs pravastatin): 0.5176
- OR (SNP x treatment interaction) (rs7701604, allele G, ADD, Imputed, atorvastatin vs pravastatin): 0.9741
- OR (SNP x treatment interaction) (rs7701604, allele G, DOM, Imputed, atorvastatin vs pravastatin): 1.136
- OR (SNP x treatment interaction) (rs7703676, allele C, ADD, Imputed, atorvastatin vs pravastatin): 0.9741
- OR (SNP x treatment interaction) (rs7703676, allele C, DOM, Imputed, atorvastatin vs pravastatin): 1.136
- OR (SNP x treatment interaction) (rs7708491, allele C, REC, Imputed, atorvastatin vs pravastatin): 1.179
- OR (SNP x treatment interaction) (rs7711358, allele A, DOM, Imputed, atorvastatin vs pravastatin): 0.593
- OR (SNP x treatment interaction) (rs7724761, allele T, REC, Imputed, atorvastatin vs pravastatin): 1.207
- OR (SNP x treatment interaction) (rs7762993, allele A, ADD, Imputed, atorvastatin vs pravastatin): 1.066
- OR (SNP x treatment interaction) (rs7762993, allele A, DOM, Imputed, atorvastatin vs pravastatin): 1.079
- OR (SNP x treatment interaction) (rs7767265, allele G, ADD, Imputed, atorvastatin vs pravastatin): 1.18
- OR (SNP x treatment interaction) (rs7768128, allele G, REC, Imputed, atorvastatin vs pravastatin): 0.3066
- OR (SNP x treatment interaction) (rs7773151, allele C, DOM, Genotyped, atorvastatin vs pravastatin): 1.038
- OR (SNP x treatment interaction) (rs7773210, allele A, DOM, Genotyped, atorvastatin vs pravastatin): 1.038
- OR (SNP x treatment interaction) (rs7843510, allele G, DOM, Genotyped, atorvastatin vs pravastatin): 0.9929
- OR (SNP x treatment interaction) (rs7939893, allele C, ADD, Imputed, atorvastatin vs pravastatin): 0.6916
- OR (SNP x treatment interaction) (rs7939893, allele C, DOM, Imputed, atorvastatin vs pravastatin): 0.506
- OR (SNP x treatment interaction) (rs7944513, allele T, REC, Imputed, atorvastatin vs pravastatin): 1.787
- OR (SNP x treatment interaction) (rs7949720, allele G, ADD, Imputed, atorvastatin vs pravastatin): 1.485
- OR (SNP x treatment interaction) (rs7949720, allele G, DOM, Imputed, atorvastatin vs pravastatin): 1.52
- OR (SNP x treatment interaction) (rs7955901, allele C, ADD, Imputed, atorvastatin vs pravastatin): 0.7285
- OR (SNP x treatment interaction) (rs7955901, allele C, DOM, Imputed, atorvastatin vs pravastatin): 0.7139
- OR (SNP x treatment interaction) (rs7956274, allele T, ADD, Imputed, atorvastatin vs pravastatin): 0.7156
- OR (SNP x treatment interaction) (rs7956274, allele T, DOM, Imputed, atorvastatin vs pravastatin): 0.7031
- OR (SNP x treatment interaction) (rs7957932, allele G, ADD, Imputed, atorvastatin vs pravastatin): 0.7234
- OR (SNP x treatment interaction) (rs7957932, allele G, DOM, Imputed, atorvastatin vs pravastatin): 0.6888
- OR (SNP x treatment interaction) (rs7999518, allele A, REC, Imputed, atorvastatin vs pravastatin): 0.4462
- OR (SNP x treatment interaction) (rs8026245, allele G, REC, Imputed, atorvastatin vs pravastatin): 1.888
- OR (SNP x treatment interaction) (rs8060725, allele A, ADD, Genotyped, atorvastatin vs pravastatin): 0.6772
- OR (SNP x treatment interaction) (rs8103016, allele A, ADD, Genotyped, atorvastatin vs pravastatin): 1.223
- OR (SNP x treatment interaction) (rs8104182, allele G, ADD, Imputed, atorvastatin vs pravastatin): 1.298
- OR (SNP x treatment interaction) (rs8104182, allele G, DOM, Imputed, atorvastatin vs pravastatin): 1.4
- OR (SNP x treatment interaction) (rs8129461, allele G, ADD, Imputed, atorvastatin vs pravastatin): 0.3726
- OR (SNP x treatment interaction) (rs8129461, allele G, DOM, Imputed, atorvastatin vs pravastatin): 0.3187
- OR (SNP x treatment interaction) (rs8130021, allele G, ADD, Imputed, atorvastatin vs pravastatin): 0.4152
- OR (SNP x treatment interaction) (rs8130021, allele G, DOM, Imputed, atorvastatin vs pravastatin): 0.3565
- OR (SNP x treatment interaction) (rs9293464, allele T, REC, Imputed, atorvastatin vs pravastatin): 1.207
- OR (SNP x treatment interaction) (rs9295154, allele G, DOM, Genotyped, atorvastatin vs pravastatin): 1.463
- OR (SNP x treatment interaction) (rs9310221, allele A, DOM, Imputed, atorvastatin vs pravastatin): 0.8966
- OR (SNP x treatment interaction) (rs9327555, allele T, DOM, Imputed, atorvastatin vs pravastatin): 0.5934
- OR (SNP x treatment interaction) (rs9403367, allele C, DOM, Imputed, atorvastatin vs pravastatin): 1.038
- OR (SNP x treatment interaction) (rs9419608, allele G, REC, Imputed, atorvastatin vs pravastatin): 0.5885
- OR (SNP x treatment interaction) (rs9426437, allele T, DOM, Imputed, atorvastatin vs pravastatin): 1.067
- OR (SNP x treatment interaction) (rs9454967, allele G, DOM, Imputed, atorvastatin vs pravastatin): 0.9744
- OR (SNP x treatment interaction) (rs9635511, allele T, DOM, Imputed, atorvastatin vs pravastatin): 0.8692
- OR (SNP x treatment interaction) (rs9812206, allele G, ADD, Imputed, atorvastatin vs pravastatin): 1.042
- OR (SNP x treatment interaction) (rs9812206, allele G, DOM, Imputed, atorvastatin vs pravastatin): 1.042
- OR (SNP x treatment interaction) (rs9813552, allele G, ADD, Imputed, atorvastatin vs pravastatin): 1.042
- OR (SNP x treatment interaction) (rs9813552, allele G, DOM, Imputed, atorvastatin vs pravastatin): 1.077
- OR (SNP x treatment interaction) (rs9815037, allele T, DOM, Imputed, atorvastatin vs pravastatin): 1.083
- OR (SNP x treatment interaction) (rs9825349, allele A, DOM, Imputed, atorvastatin vs pravastatin): 1.083
- OR (SNP x treatment interaction) (rs9840756, allele A, ADD, Imputed, atorvastatin vs pravastatin): 0.9995
- OR (SNP x treatment interaction) (rs9840756, allele A, DOM, Imputed, atorvastatin vs pravastatin): 1.031
